Columns and labels:
Type in all cases: physicochemical
[1] = Bulk density (USP 616, Method 1; bulk density cylinder)
Excerpt: Bulk density can be determined according to USP 616, Method 1.
Bulk density can be determined using a bulk density cylinder.

[2] = Tapped bulk density (USP 616); details: active pharmaceutical ingredient used in Example 13
Excerpt: Tapped bulk density can be determined according to USP 616.

Hausner Ratio (USP 1174) = details: active pharmaceutical ingredient used in Example 13
Excerpt: The Hausner Ratio can be determined according to USP 1174.

[3] = Particle size distribution by laser diffraction
Excerpt: The parameter D90 refers to the point in the size distribution of a sample, up to and including which, 90% of the total volume of material in the sample is contained. For example for a D90 of 400 μm, 90% of the sample volume has a size of 400 μm or less. D50 is the size below which 50% of the total volume of material in the sample is contained. Similarly, D10 refers to the size below which 10% of the total volume of material in the sample is contained. The volume distribution of the sample can be determined by laser diffraction or by sieve analysis.
A particle size distribution can be determined by laser diffraction or by sieve analysis.
FIGS. 15 and 16 show a particle size distribution of as-crystallized active pharmaceutical ingredient and jet-milled active pharmaceutical ingredient, respectively, as determined by laser diffraction. The PSD of the as-crystallized active pharmaceutical ingredient was characterized by a D10 of 11.8 μm, a D50 of 34.0 μm, and a D90 of 72.3 μm. The PSD of the jet-milled active pharmaceutical ingredient was characterized by a D10 of 7.8 μm, a D50 of 16.1 μm, and a D90 of 21.5 μm.

[4] = Specific surface area by laser diffraction
Description: Specific surface area can be determined by laser diffraction.
The specific surface area distributions of as-crystallized active pharmaceutical ingredient and jet-milled active pharmaceutical ingredient was determined by laser diffraction. […] In other samples, the jet milled active pharmaceutical ingredient was characterized by a specific surface area of 1174 m^2/kg.

[5] = active pharmaceutical ingredient used in Example 13
[6] = FIGS. 15 and 16, laser diffraction, listed as as-crystallized active pharmaceutical ingredient
[7] = FIGS. 15 and 16, laser diffraction, listed as jet-milled active pharmaceutical ingredient

Compound	API Bulk Density [1, 5]	API Tapped Bulk Density [2]	Hausner Ratio (Hausner Ratio (USP 1174))	PSD D10 [3, 6]	PSD D50 [3, 6]	PSD D90 [3, 6]	PSD D10 [3, 5]	PSD D50 [3, 5]	PSD D90 [3, 5]	specific surface area [4, 5]	specific surface area ([4]; laser diffraction, listed as as-crystallized active pharmaceutical ingredient)	API Bulk Density ([1]; Jet Milled API used for granulation (13))	PSD D10 [3, 7]	PSD D50 [3, 7]	PSD D90 [3, 7]	specific surface area ([4]; in other samples)	specific surface area ([4]; laser diffraction, listed as jet-milled active pharmaceutical ingredient)	bulk density ([1]; active pharmaceutical ingredient of Example 9, before Comil)	bulk density ([1]; active pharmaceutical ingredient used in Examples 1-6)
CC(C)[C@H](N)C(=O)OCCCC(=O)O [As-Crystallized, 4-((L-valyl)oxy)butanoic acid]	0.20 g/mL	0.38 g/mL	1.85	11.8 μm	34.0 μm	72.3 μm	12 μm	34 μm	71 μm	291 m^2/kg	291 m^2/kg	–	–	–	–	–	–	–	–
CC(C)[C@H](N)C(=O)OCCCC(=O)O [Jet-Milled, 4-((L-valyl)oxy)butanoic acid]	0.12 g/mL	0.20 g/mL	1.700	–	–	–	8 μm	16 μm	28 μm	478 m^2/kg	–	0.12 g/mL	7.8 μm	16.1 μm	21.5 μm	1174 m^2/kg	478 m^2/kg	–	–
CC(C)[C@H](N)C(=O)OCCCC(=O)O [active pharmaceutical ingredient, 4-((L-valyl)oxy)butanoic acid]	–	–	–	–	–	–	–	–	–	–	–	–	–	–	–	–	–	0.263 g/mL	0.15 g/mL
